Each structure is given as a SMILES string.

The test system of one data set is caterpillars of the armyworm (Spodoptera frugiperda). In words: Spodoptera frugiperda spray test (SPODFR). It is filed as in vivo. To be noted: 100 g/ha, spray, after 7 days. As to the method:
Spodoptera frugiperda—Spray Test (SPODFR) Solvent: 78.0 parts by weight of acetone • • 1.5 parts by weight of dimethylformamide Emulsifier: alkylaryl polyglycol ether To produce a suitable active compound formulation, 1 part by weight of active compound is dissolved using the specified parts by weight of solvent and made up with water containing an emulsifier concentration of 1000 ppm until the desired concentration is attained. To produce further test concentrations, the preparation is diluted with emulsifier-containing water. Leaf discs of maize (Zea mays) are sprayed with an active compound formulation of the desired concentration and, after drying, populated with caterpillars of the armyworm (Spodoptera frugiperda). After 7 days, the efficacy in % is determined 100% means that all the caterpillars have been killed; 0% means that no caterpillars have been killed. Spodoptera frugiperda—Spray Test (SPODFR) Solvent: 78.0 parts by weight of acetone • • 1.5 parts by weight of dimethylformamide Emulsifier: alkylaryl polyglycol ether To produce a suitable active compound formulation, 1 part by weight of active compound is dissolved using the specified parts by weight of solvent and made up with water containing an emulsifier concentration of 1000 ppm until the desired concentration is attained. To produce further test concentrations, the preparation is diluted with emulsifier-containing water. Leaf discs of maize (Zea mays) are sprayed with an active compound formulation of the desired concentration and, after drying, populated with caterpillars of the armyworm (Spodoptera frugiperda). After the desired period of time, the efficacy in % is determined. 100% means that all the caterpillars have been killed; 0% means that no caterpillars have been killed.
The compound `C#CCn1c(C(=O)NC(c2cc(Cl)c(F)c(Cl)c2)C(F)(F)F)cc2cc(C(=O)NC3(C(N)=S)CC3)c(Cl)cc21` (stereo not shown) [I-14] came in with an efficacy of 100%.

Consider `Cn1c(C(=O)NC(c2cc(Cl)c(F)c(Cl)c2)C(F)(F)F)cc2cc(C(=O)NC3(C(N)=S)CC3)c(Cl)cc21` (stereo not shown) [I-15], for which the efficacy was found to be 100%.

The compound `C#CCn1c(C(=O)NC(c2cc(Cl)c(Cl)c(Cl)c2)C(F)(F)F)cc2cc(C(=O)NC3(C(N)=S)CC3)c(Cl)cc21` (stereo not shown) [I-21] returned an efficacy of 100%.

`CCn1c(C(=O)NC(c2cc(F)cc(F)c2)C(F)F)cc2cc(C(=O)NC3(C(N)=S)CC3)c(Cl)cc21` (stereo not shown) [I-23] returned an efficacy of 83%.

`CCn1c(C(=O)NC(c2ccc(Cl)c(Cl)c2)C(F)F)cc2cc(C(=O)NC3(C(N)=S)CC3)c(Cl)cc21` (stereo not shown) [I-25] showed an efficacy of 100%.

Compound `CCn1c(C(=O)NC(c2cc(Cl)c(F)c(Cl)c2F)C(F)F)cc2cc(C(=O)NC3(C(N)=S)CC3)c(Cl)cc21` (stereo not shown) [I-28] had an efficacy of 100%.

The same data set, now with this note: SPODFR, 0.8 g/ha, 7 dat.
Regarding `Cn1c(C(=O)NC(c2cc(Cl)c(F)c(Cl)c2)C(F)(F)F)cc2cc(C(=O)NC3(C(N)=S)CC3)c(Cl)cc21` (stereo not shown) [I-15], the “% efficacy” value was determined as 83%.

For `C#CCn1c(C(=O)NC(c2cc(Cl)c(Cl)c(Cl)c2)C(F)(F)F)cc2cc(C(=O)NC3(C(N)=S)CC3)c(Cl)cc21` (stereo not shown) [I-21], the “% efficacy” value is 100%.

The same data set, now with this note: SPODFR, 4 g/ha, 7 dat.
With `Cn1c(C(=O)NC(c2cc(Cl)c(F)c(Cl)c2)C(F)(F)F)cc2cc(C(=O)NC3(C(N)=S)CC3)c(Cl)cc21` (stereo not shown) [I-15], the “% efficacy” value was 100%.

On to `C#CCn1c(C(=O)NC(c2cc(Cl)c(Cl)c(Cl)c2)C(F)(F)F)cc2cc(C(=O)NC3(C(N)=S)CC3)c(Cl)cc21` (stereo not shown) [I-21], for which the “% efficacy” value is listed as 100%.

Test system in a further data set: not listed separately
In words: log P by HPLC (EEC directive 79/831 Annex V.A8). The note with it: HPLC, reversed-phase column (C18), 43° C., acidic range pH 2.7. It is filed as physicochemical. The procedure: a) The determination of the M^+ by LC-MS in the acidic range is effected at pH 2.7, acetonitrile (contains 0.1% formic acid) and water as eluents; linear gradient from 10% acetonitrile to 95% acetonitrile, instrument: Agilent 1100 LC system, Agilent MSD system, HTS PAL. The log P values reported in the tables and Preparation Examples above were determined in accordance with EEC directive 79/831 Annex V.A8 by HPLC (High Performance Liquid Chromatography) using a reversed-phase column (C18). Temperature 43° C. The calibration is effected with unbranched alkan-2-ones (having 3 to 16 carbon atoms), for which the logP values are known.
Take `C#CCn1c(C(=O)NC(c2cc(Cl)c(F)c(Cl)c2)C(F)(F)F)cc2cc(C(=O)NC3(C(N)=S)CC3)c(Cl)cc21` (stereo not shown) [I-14]: the log partition coefficient (log P) (as a rule, the decadic logarithm of the partition coefficient of the neutral form, usually between octanol and water) was found to be 3.81.

As to `Cn1c(C(=O)NC(c2cc(Cl)c(F)c(Cl)c2)C(F)(F)F)cc2cc(C(=O)NC3(C(N)=S)CC3)c(Cl)cc21` (stereo not shown) [I-15], the “log P” value is on record as 3.76.

For the compound `C#CCn1c(C(=O)NC(c2cc(Cl)c(Cl)c(Cl)c2)C(F)(F)F)cc2cc(C(=O)NC3(C(N)=S)CC3)c(Cl)cc21` (stereo not shown) [I-21], the “log P” value turned out to be 4.09.

As to `CCn1c(C(=O)NC(c2cc(F)cc(F)c2)C(F)F)cc2cc(C(=O)NC3(C(N)=S)CC3)c(Cl)cc21` (stereo not shown) [I-23], the “log P” value was 3.07.

As to `CCn1c(C(=O)NC(c2ccc(Cl)c(Cl)c2)C(F)F)cc2cc(C(=O)NC3(C(N)=S)CC3)c(Cl)cc21` (stereo not shown) [I-25], the “log P” value came out at 3.54.

For the compound `CCn1c(C(=O)NC(c2cc(Cl)c(F)c(Cl)c2F)C(F)F)cc2cc(C(=O)NC3(C(N)=S)CC3)c(Cl)cc21` (stereo not shown) [I-28], the lipophilicity (log P) came to 3.90.

In the next data set the test system is adult cat fleas (Ctenocephalides felis). The data set can be described thus: Ctenocephalides felis oral test (CTECFE). It is filed as in vivo. To be noted: 100 ppm, oral in cattle blood, after 2 days. As to the method: Ctenocephalides felis-Oral Test ([…]) Solvent: dimethyl sulphoxide To produce a suitable active compound formulation, 10 mg of active compound are mixed with 0.5 ml of dimethyl sulphoxide. Dilution with citrated cattle blood gives the desired concentration. About 20 unfed adult cat fleas (Ctenocephalides felis) are placed into a chamber which is closed at the top and bottom with gauze. A metal cylinder whose bottom end is closed with parafilm is placed onto the chamber. The cylinder contains the blood/active compound preparation, which can be imbibed by the fleas through the parafilm membrane. After 2 days, the kill in % is determined 100% means that all of the fleas have been killed; 0% means that none of the fleas have been killed.
In the case of `CCn1c(C(=O)NC(c2cc(F)cc(F)c2)C(F)F)cc2cc(C(=O)NC3(C(N)=S)CC3)c(Cl)cc21` (stereo not shown) [I-23], the “efficacy (kill in %)” value is 100%.

On to `CCn1c(C(=O)NC(c2ccc(Cl)c(Cl)c2)C(F)F)cc2cc(C(=O)NC3(C(N)=S)CC3)c(Cl)cc21` (stereo not shown) [I-25], for which the “efficacy (kill in %)” value stood at 100%.

The next data set relates to greenhouse red spider mite (Tetranychus urticae). The data set can be described thus: Tetranychus urticae spray test, OP-resistant (TETRUR). The format is in vivo. The note with it: 100 g/ha, spray, after 6 days. The procedure: Tetranychus urticae—Spray Test, OP-Resistant (TETRUR)
(§1) Solvent: 78.0 parts by weight of acetone • • 1.5 parts by weight of dimethylformamide
(§2) Emulsifier: alkylaryl polyglycol ether
(§3) To produce a suitable active compound formulation, 1 part by weight of active compound is dissolved using the specified parts by weight of solvent and made up with water containing an emulsifier concentration of 1000 ppm until the desired concentration is attained. To produce further test concentrations, the preparation is diluted with emulsifier-containing water.
Discs of bean leaves (Phaseolus vulgaris) infested by all stages of the greenhouse red spider mite (Tetranychus urticae) are sprayed with an active compound formulation of the desired concentration.
After 6 days, the efficacy in % is determined 100% means that all the spider mites have been killed; 0% means that none of the spider mites have been killed.
Tetranychus urticae—Spray Test; OP-Resistant (TETRUR)
After the desired period of time, the efficacy in % is determined 100% means that all the spider mites have been killed; 0% means that none of the spider mites have been killed.
As for `C#CCn1c(C(=O)NC(c2cc(Cl)c(F)c(Cl)c2)C(F)(F)F)cc2cc(C(=O)NC3(C(N)=S)CC3)c(Cl)cc21` (stereo not shown) [I-14], the efficacy was 100%.

Consider `Cn1c(C(=O)NC(c2cc(Cl)c(F)c(Cl)c2)C(F)(F)F)cc2cc(C(=O)NC3(C(N)=S)CC3)c(Cl)cc21` (stereo not shown) [I-15], for which the efficacy is reported as 90%.

Compound `C#CCn1c(C(=O)NC(c2cc(Cl)c(Cl)c(Cl)c2)C(F)(F)F)cc2cc(C(=O)NC3(C(N)=S)CC3)c(Cl)cc21` (stereo not shown) [I-21] had an efficacy of 100%.

In turn, `CCn1c(C(=O)NC(c2cc(F)cc(F)c2)C(F)F)cc2cc(C(=O)NC3(C(N)=S)CC3)c(Cl)cc21` (stereo not shown) [I-23] had an efficacy of 100%.

Compound `CCn1c(C(=O)NC(c2ccc(Cl)c(Cl)c2)C(F)F)cc2cc(C(=O)NC3(C(N)=S)CC3)c(Cl)cc21` (stereo not shown) [I-25] registered an efficacy of 100%.

Turning to `CCn1c(C(=O)NC(c2cc(Cl)c(F)c(Cl)c2F)C(F)F)cc2cc(C(=O)NC3(C(N)=S)CC3)c(Cl)cc21` (stereo not shown) [I-28], the efficacy stood at 100%.

The subject of another data set is larvae of the mustard beetle (Phaedon cochleariae). The data set can be described thus: Phaedon cochleariae spray test (PHAECO). It is filed as in vivo. To be noted: 20 g/ha, after 7 days. As to the method:
Phaedon cochleariae—Spray Test (PHAECO)
as §1, §2, §3
After 7 days, the efficacy in % is determined. 100% means that all the beetle larvae have been killed; 0% means that no beetle larvae have been killed.
`Cn1c(C(=O)NC(c2cc(Cl)c(F)c(Cl)c2)C(F)(F)F)cc2cc(C(=O)NC3(C(N)=S)CC3)c(Cl)cc21` (stereo not shown) [I-15] registered an efficacy of 100%.

Staying with this data set, now noted: 100 g/ha, after 7 days.
Compound `C#CCn1c(C(=O)NC(c2cc(Cl)c(F)c(Cl)c2)C(F)(F)F)cc2cc(C(=O)NC3(C(N)=S)CC3)c(Cl)cc21` (stereo not shown) [I-14] yielded an efficacy of 100%.

`C#CCn1c(C(=O)NC(c2cc(Cl)c(Cl)c(Cl)c2)C(F)(F)F)cc2cc(C(=O)NC3(C(N)=S)CC3)c(Cl)cc21` (stereo not shown) [I-21] came in with an efficacy of 100%.

Regarding `CCn1c(C(=O)NC(c2cc(F)cc(F)c2)C(F)F)cc2cc(C(=O)NC3(C(N)=S)CC3)c(Cl)cc21` (stereo not shown) [I-23], the efficacy came to 100%.

On to `CCn1c(C(=O)NC(c2ccc(Cl)c(Cl)c2)C(F)F)cc2cc(C(=O)NC3(C(N)=S)CC3)c(Cl)cc21` (stereo not shown) [I-25], for which the efficacy is on record as 100%.

`CCn1c(C(=O)NC(c2cc(Cl)c(F)c(Cl)c2F)C(F)F)cc2cc(C(=O)NC3(C(N)=S)CC3)c(Cl)cc21` (stereo not shown) [I-28]: the efficacy was determined as 100%.

A further data set relates to engorged adult female cattle ticks (Boophilus microplus). The data set can be described thus: Boophilus microplus injection test (BOOPMI inj). It is filed as in vivo. The note with it: assessed after 7 days. The procedure:
Boophilus microplus Injection Test (BOOPMI inj) Solvent: dimethyl sulphoxide To produce a suitable active compound formulation, 10 mg of active compound are mixed with 0.5 ml of solvent and the concentrate is diluted with solvent to the desired concentration. 1 μl of the active compound solution is injected into the abdomen of 5 engorged adult female cattle ticks (Boophilus microplus). The animals are transferred into dishes and kept in a climate-controlled room. The efficacy is assessed after 7 days by laying of fertile eggs. Eggs which are not visibly fertile are stored in a climate-controlled cabinet until the larvae hatch after about 42 days. An efficacy of 100% means that none of the ticks has laid any fertile eggs; 0% means that all the eggs are fertile.
For the compound `CCn1c(C(=O)NC(c2cc(F)cc(F)c2)C(F)F)cc2cc(C(=O)NC3(C(N)=S)CC3)c(Cl)cc21` (stereo not shown) [I-23], the “efficacy (laying of fertile eggs)” value is 100%.

Turning to `CCn1c(C(=O)NC(c2ccc(Cl)c(Cl)c2)C(F)F)cc2cc(C(=O)NC3(C(N)=S)CC3)c(Cl)cc21` (stereo not shown) [I-25], the “efficacy (laying of fertile eggs)” value is 100%.

A further data set has as its system L1 larvae of the Australian sheep blowfly (Lucilia cuprina). The data set can be described thus: Lucilia cuprina test (LUCICU). The format is in vivo. To be noted: 100 ppm, after 2 days. As to the method: Lucilia cuprina Test (LUCICU) Solvent: dimethyl sulphoxide To produce a suitable active compound formulation, 10 mg of active compound are mixed with 0.5 ml of dimethyl sulphoxide, and the concentrate is diluted with water to the desired concentration. About 20 L1 larvae of the Australian sheep blowfly (Lucilia cuprina) are transferred into a test vessel containing minced horsemeat and the active compound preparation of the desired concentration. After 2 days, the kill in % is determined 100% means that all the larvae have been killed; 0% means that none of the larvae have been killed.
On to `CCn1c(C(=O)NC(c2cc(F)cc(F)c2)C(F)F)cc2cc(C(=O)NC3(C(N)=S)CC3)c(Cl)cc21` (stereo not shown) [I-23], for which the “efficacy (kill in %)” value worked out at 90%.

As to `CCn1c(C(=O)NC(c2ccc(Cl)c(Cl)c2)C(F)F)cc2cc(C(=O)NC3(C(N)=S)CC3)c(Cl)cc21` (stereo not shown) [I-25], the “efficacy (kill in %)” value came out at 100%.

The values are drawn from US9802895B2, “Indole and benzimidazolecarboxamides as insecticides and acaricides” (BAYER CROPSCIENCE AKTIENGESELLSCHAFT, priority 2014, dated 2017).
